The source of these data is US10647708B2, “Tetrahydroisoquinoline derived PRMT5-inhibitors” (CTXT PTY LTD, priority 2014, dated 2020).

Chain of Full-length PRMT5 enzyme co-expressed with MEP50 (O14744 whole entry): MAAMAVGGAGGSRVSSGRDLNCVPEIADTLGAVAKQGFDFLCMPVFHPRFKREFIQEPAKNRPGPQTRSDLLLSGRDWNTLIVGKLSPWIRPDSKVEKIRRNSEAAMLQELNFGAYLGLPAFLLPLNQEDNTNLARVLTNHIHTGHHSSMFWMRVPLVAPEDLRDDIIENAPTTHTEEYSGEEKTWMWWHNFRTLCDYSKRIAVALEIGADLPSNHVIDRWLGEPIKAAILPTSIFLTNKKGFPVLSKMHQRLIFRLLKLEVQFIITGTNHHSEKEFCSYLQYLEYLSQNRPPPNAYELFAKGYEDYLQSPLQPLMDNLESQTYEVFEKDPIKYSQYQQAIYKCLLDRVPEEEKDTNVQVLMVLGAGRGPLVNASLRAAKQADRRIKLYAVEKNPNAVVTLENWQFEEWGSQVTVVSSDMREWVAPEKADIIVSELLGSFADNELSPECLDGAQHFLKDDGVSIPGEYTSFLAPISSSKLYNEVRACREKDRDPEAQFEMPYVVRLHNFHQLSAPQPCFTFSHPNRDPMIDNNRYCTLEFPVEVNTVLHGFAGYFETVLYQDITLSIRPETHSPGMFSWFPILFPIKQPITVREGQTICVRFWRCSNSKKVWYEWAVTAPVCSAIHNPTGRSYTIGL
Chain of Full-length PRMT5 enzyme co-expressed with MEP50 (Q9BQA1 whole entry partner): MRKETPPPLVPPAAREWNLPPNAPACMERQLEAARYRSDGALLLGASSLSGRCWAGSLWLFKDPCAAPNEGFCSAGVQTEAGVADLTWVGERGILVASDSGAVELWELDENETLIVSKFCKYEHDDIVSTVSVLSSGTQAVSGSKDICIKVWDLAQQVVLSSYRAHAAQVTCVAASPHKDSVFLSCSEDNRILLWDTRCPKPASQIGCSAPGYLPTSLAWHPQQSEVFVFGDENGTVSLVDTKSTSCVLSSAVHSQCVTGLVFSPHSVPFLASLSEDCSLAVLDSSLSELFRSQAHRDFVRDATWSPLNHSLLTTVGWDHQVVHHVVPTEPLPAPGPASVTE

The subject of the first experiment is symmetrical dimethylation of arginine (Histone H4 Arginine 3) in cell line TE11. Briefly: Revised PRMT5 Biomarker Assay. Format: cell-based. As to conditions: Homo sapiens, TE-11; TE11 cells, 72 hours incubation, anti-Di-Methyl Histone H4 Arginine 3 immunofluorescence, plate-reader based. As to the method: Compounds of the invention may be tested for potency to inhibit symmetrical dimethylation of arginine in the following assay:
The cell line TE11 was seeded at a density of 6,000 cells per well in 96 well optical quality tissue culture plates in DME medium and 10% foetal bovine serum, and allowed to adhere for 5 hours under standard culture conditions (37 degree Celsius, 5% CO2). Compound dilutions prepared in DMSO were added to the medium, with negative control wells reserved for treatment with DMSO only and positive controls receiving a potent PRMT5 inhibitor compound at 1 μM concentration. After incubation for 72 hours, the cells were fixed with 3.7% formaldehyde in PBS for 30 minutes at room temperature, washed with phosphate buffer saline and blocked with Odyssey blocking buffer (LI-COR, Lincoln, Nebr.). Rabbit anti-Di-Methyl Histone H4 Arginine 3 specific antibody (Epigentek) in Odyssey blocking buffer was added and incubated for 14 hours at 4 degree Celsius. After washing, anti-rabbit secondary antibody labelled with Alexa647 dye (LifeTechnologies) and Hoechst 33342 (1 μg/mL, SigmaAldrich) were added for 1 hour incubation. Plates were washed and read on a PerkinElmer Envision 2103 in fluorescence intensity scanning mode (24 scans across the well area). The methylation level information was corrected for the number of cells as expressed by the Hoechst 33342 stain, converted to percent inhibition relative to controls on the same plate and the data fitted against a four-parameter logistic model to determine the 50% inhibitory concentration (IC50 plate-reader based). Alternatively, the plates were imaged on a PerkinElmer Phenix high content imaging platform. Using a Columbus image analysis pipeline, individual nuclei were located by Hoechst 33342 stain and the methylation level was calculated from the Alexa647-related intensity in the same area. The resulting mean intensity per cell was directly converted to percent inhibition as outlined above (IC50, imager based)).
On to `O=C(NCCC(O)CN1CCc2ccccc2C1)c1ccc(-c2ccccc2)cc1` (stereo not shown) [Compound 40], for which the IC50 came out at 0.048 µM. This counts as double-digit nanomolar.
Turning to `O=C(NCCC(O)CN1CCc2ccccc2C1)c1ccc(S(F)(F)(F)(F)F)cc1` (stereo not shown) [Compound 20], the midpoint of inhibition, the IC50, lay at 0.505 µM.
The compound `Cc1nn(C)cc1-c1cc(C(=O)NCCC(O)CN2CCc3ccccc3C2)no1` (stereo not shown) [Compound 36] had an IC50 of 0.023 µM.
In the case of `O=C(NCCC(O)CN1CCc2ccccc2C1)c1ccc(OC(F)(F)F)cc1` (stereo not shown) [Compound 19], the IC50 came out at 0.089 µM.

The same experiment, now with this note: TE11 cells, 72 hours incubation, anti-Di-Methyl Histone H4 Arginine 3 immunofluorescence, plate-reader based.
`CC(=O)N1CCC(Nc2cc(C(=O)NCCC(O)CN3CCc4ccccc4C3)ccn2)CC1` (stereo not shown) [Compound 46] registered an IC50 of 0.007 µM.

Another experiment has as its target Full-length PRMT5 enzyme co-expressed with MEP50 (Homo sapiens (Human), UniProt O14744). Briefly: Revised PRMT5 Biochemical Assay. The following applies: 1 μM peptide substrate, 1 μM S-Adenosyl methionine, 4 hours at 37 degree Celsius, Transcreener EPIGEN fluorescence polarisation. As to the method:
Compounds of the invention may be tested for in vitro activity in the following assay: A histone H4 derived peptide is used as substrate (amino acid sequence: […]NH2). Full-length PRMT5 enzyme (NCBI Reference sequence NP_006100.2) was co-expressed with Hiss-MEP50 in insect cells and purified via Nickel immobilized metal affinity and gel filtration chromatography (“the enzyme”).
The 6 μL reactions are run in Greiner brand black 384-well low volume assay plates. All reactions contained assay buffer (phosphate buffered saline, 0.01% (v/v) Tween-20, 0.01% (w/v) albumin from chicken egg white, 1 mM Dithiothreitol, 1 μM peptide substrate, 1 μM S-Adenosyl methionine, and 15 ng/reaction enzyme, with the enzyme being omitted from negative control reactions. Compounds were added in a volume of 100 nL from dilution series prepared in DMSO, positive and negative control reactions receiving the same volume DMSO without compound. The plates were sealed with adhesive seals and incubated for 4 hours at 37 degree Celsius. Reaction progress was measured using the Transcreener™ EPIGEN methyltransferase assay (BellBrook Labs, Madison, Wis.) as recommended by the manufacturer. To each reaction 2 μL detection mix were added, containing coupling enzymes, fluorescence polarisation tracer, and AMP antibody. Plates were incubated for 90 minutes before being read on a PerkinElmer EnVision™ plate reader in fluorescence polarisation mode. IC50 values were obtained from the raw readings by calculating percent inhibition (% I) for each reaction relative to controls on the same plate (% I=(I−CN)/(CP−CN) where CN/CP are the averages of the negative/positive reactions, respectively), then fitting the % I data vs. compound concentration [I] to % I=(A+((B−A)/(1+((C/[I])^D)))) where A is the lower asymptote, B is the upper asymptote, C is the IC50 value, and D is the slope.
Background: In fluorescence polarisation assays a small probe gives low polarisation when free and higher when bound to something large.
In turn, `O=C(NCCC(O)CN1CCc2ccccc2C1)c1cccnc1` (stereo not shown) [Compound 17] showed an IC50 of 15 µM.
Consider `Cc1c(C(=O)NCCC(O)CN2CCc3ccccc3C2)cnn1-c1ccccn1` (stereo not shown) [Compound 33], for which the IC50 was 7.45 µM.
In turn, `CN(C)C(=O)c1ccc(C(=O)NCCC(O)CN2CCc3ccccc3C2)cc1` (stereo not shown) [Compound 32] registered an IC50 of 3.54 µM. This IC50 is about 2.1-fold lower than that of the compound before.
The same measure, in the same setting: the same measure for `O=C(NCCC(O)CN1CCc2ccccc2C1)c1ccc(C(=O)N2CCCC2)cc1` (stereo not shown) [Compound 30]: 3.12 µM; for `O=C(NCCC(O)CN1CCc2ccccc2C1)c1cccc(Cl)c1` (stereo not shown) [Compound 18]: 9.79 µM; for `O=C(NCCC(O)CN1CCc2ccccc2C1)c1cccc(-c2ccnnc2)c1` (stereo not shown) [Compound 25]: 6.35 µM.
For the compound `O=C(NCCC(O)CN1CCc2ccccc2C1)c1ccc2c(c1)OC(F)(F)O2` (stereo not shown) [Compound 23], half-maximal inhibition (IC50) was put at 1.69 µM.
The compound `O=C(NCCC(O)CN1CCc2ccccc2C1)c1ccn(Cc2ccccc2)c(=O)c1` (stereo not shown) [Compound 12] registered an IC50 of 1.59 µM. This IC50 and that of the compound before are within 1.5-fold of each other.
The same measure, in the same setting: the value for `O=C(NCCC(O)CN1CCc2ccccc2C1)c1ccc([S+]([O-])C(F)(F)F)cc1` (stereo not shown) [Compound 3] was 0.925 µM.
`O=C(NCCC(O)CN1CCc2ccccc2C1)c1ccnc(Cl)c1` (stereo not shown) [Compound 44, 2-Chloro-N-(4-(3,4-dihydroisoquinolin-2(1H)-yl)-3-hydroxybutyl)isonicotinamide] had a concentration for half-maximal inhibition (IC50) of 13.7 µM.
Consider `CS(=O)(=O)c1ccccc1OCC(=O)NCCC(O)CN1CCc2ccccc2C1` (stereo not shown) [Compound 4], for which the IC50 is 51.7 µM. Compared with the last compound, the IC50 is about 3.8-fold higher.
Take `O=C(NCCC(O)CN1CCc2ccccc2C1)c1ccnn1-c1cccnc1` (stereo not shown) [Compound 38]: the IC50 is 2.88 µM.
The compound `Cc1nnc(-c2ccc(C(=O)NCCC(O)CN3CCc4ccccc4C3)cc2)o1` (stereo not shown) [Compound 42] registered a concentration for half-maximal inhibition (IC50) of 2.83 µM. This IC50 and that of the compound before are within 1.5-fold of each other.
Same read-out and setting: the same measure for `O=C(NCCC(O)CN1CCc2ccccc2C1)c1ccc(S(=O)(=O)C(F)(F)F)cc1` (stereo not shown) [Compound 2]: 1.13 µM; for `Cc1c(C(=O)NCCC(O)CN2CCc3ccccc3C2)cnn1-c1ccncc1` (stereo not shown) [Compound 13]: 7.09 µM.
Compound `O=C(NCCC(O)CN1CCc2ccccc2C1)c1ccc2oc(=O)[nH]c2c1` (stereo not shown) [Compound 9] had an IC50 of 4.35 µM.
Still for that read-out and setting: the same measure for `CS(=O)(=O)c1ccc(C(=O)NCCC(O)CN2CCc3ccccc3C2)cc1` (stereo not shown) [Compound 22]: 7.02 µM; for `O=C(NCCC(O)CN1CCc2ccccc2C1)c1ccc(-c2ccccc2)cc1` (stereo not shown) [Compound 40]: 0.769 µM.
In turn, `COc1ccc(-c2cc(C(=O)NCCC(O)CN3CCc4ccccc4C3)on2)cc1` (stereo not shown) [Compound 8] gave an IC50 of 3.09 µM. Against the preceding compound, the IC50 is about 4-fold higher.
`O=C(NCCC(O)CN1CCc2ccccc2C1)c1ccc(S(F)(F)(F)(F)F)cc1` (stereo not shown) [Compound 20]: it took 0.214 µM to reach half-maximal inhibition (IC50).
`O=C(NCCC(O)CN1CCc2ccccc2C1)c1noc(-c2ccccc2)n1` (stereo not shown) [Compound 34]: the IC50 came to 56.1 µM.
Same read-out and setting: the same measure for `O=C(NCCC(O)CN1CCc2ccccc2C1)c1cccc(C(=O)N2CCOCC2)c1` (stereo not shown) [Compound 45, N-(4-(3,4-dihydroisoquinolin-2(1H)-yl)-3-hydroxybutyl)-3-(morpholine-4-carbonyl)benzamide]: 5.23 µM; for `Cc1nn(C)cc1-c1cc(C(=O)NCCC(O)CN2CCc3ccccc3C2)no1` (stereo not shown) [Compound 36]: 1.2 µM; for `COc1ccc(-n2cc(C(=O)NCCC(O)CN3CCc4ccccc4C3)cn2)cc1` (stereo not shown) [Compound 7]: 1.94 µM.
`COc1ccc(C(=O)NCCC(O)CN2CCc3ccccc3C2)cc1-c1cncnc1` (stereo not shown) [Compound 27] registered an IC50 of 5.62 µM.
Compound `Cc1nnc(-c2cccc(C(=O)NCCC(O)CN3CCc4ccccc4C3)c2)o1` (stereo not shown) [Compound 39] displayed an IC50 of 1.22 µM.
The compound `CC(=O)N1CCC(Nc2cc(C(=O)NCCC(O)CN3CCc4ccccc4C3)ccn2)CC1` (stereo not shown) [Compound 46] had an IC50 of 0.186 µM. This IC50 lies about 6.6-fold lower than the previous one.
Still for that read-out and setting: the same measure for `O=C(NCCC(O)CN1CCc2ccccc2C1)c1cncc(Cl)n1` (stereo not shown) [Compound 43]: 106 µM; for `Cc1cccc(C(=O)NCCC(O)CN2CCc3ccccc3C2)n1` (stereo not shown) [Compound 24]: 25.4 µM; for `O=C(NCCC(O)CN1CCc2ccccc2C1)c1coc(-c2ccccc2)n1` (stereo not shown) [Compound 35]: 1.21 µM.
On to `O=C(NCCC(O)CN1CCc2ccccc2C1)c1cnn(-c2ccccn2)c1` (stereo not shown) [Compound 28], for which half-maximal inhibition (IC50) was put at 12.3 µM.
As for `O=C(NCCC(O)CN1CCc2ccccc2C1)c1nnc(-c2ccccc2)o1` (stereo not shown) [Compound 11], inhibition was half-maximal at 39.2 µM (IC50).
Still for that read-out and setting: the value for `O=C(NCCC(O)CN1CCc2ccccc2C1)c1ccc(OC(F)(F)F)cc1` (stereo not shown) [Compound 19] was 0.319 µM.
`O=C(NCCC(O)CN1CCc2ccccc2C1)c1cccc(-c2ccccc2)c1` (stereo not shown) [Compound 41] returned an IC50 of 5.29 µM.
`Cc1nonc1COc1ccc(C(=O)NCCC(O)CN2CCc3ccccc3C2)cc1` (stereo not shown) [Compound 10] had an IC50 of 3.98 µM.
As to `O=C(NCCC(O)CN1CCc2ccccc2C1)c1ccc(C(F)(F)F)cc1` (stereo not shown) [Compound 5], the concentration for half-maximal inhibition (IC50) is 1.33 µM. Against the preceding compound, the IC50 is about 3-fold lower.
As to `C[S+]([O-])c1ccc(C(=O)NCCC(O)CN2CCc3ccccc3C2)cc1` (stereo not shown) [Compound 26], it took 3.75 µM to reach half-maximal inhibition (IC50).
On to `O=C(NCCC(O)CN1CCc2ccccc2C1)c1ccc(OC(F)F)cc1` (stereo not shown) [Compound 21], for which the IC50 turned out to be 0.415 µM.
`N#Cc1cccc(C(=O)NCCC(O)CN2CCc3ccccc3C2)c1` (stereo not shown) [Compound 16] registered an IC50 of 13 µM. Against the preceding compound, the IC50 is about 31-fold higher.
`Cn1ccc(C(=O)NCCC(O)CN2CCc3ccccc3C2)cc1=O` (stereo not shown) [Compound 29] returned an IC50 of 10.8 µM.
As to `O=C(NCCC(O)CN1CCc2ccccc2C1)c1ccc(N2CCOCC2)nc1` (stereo not shown) [Compound 14], half-maximal inhibition (IC50) was put at 0.91 µM.
Compound `Cn1cc(-c2cc(C(=O)NCCC(O)CN3CCc4ccccc4C3)no2)cn1` (stereo not shown) [Compound 37] showed an IC50 of 1.19 µM.
The compound `O=C(NCCC(O)CN1CCc2ccccc2C1)c1ccc(N2CCCCC2=O)cc1` (stereo not shown) [Compound 6] registered an IC50 of 13.1 µM.
In turn, `O=C(NCCC(O)CN1CCc2ccccc2C1)c1ccc(C(=O)N2CCC2)cc1` (stereo not shown) [Compound 31] gave an IC50 of 3.16 µM.

As usually defined, the IC50 is the midpoint of a concentration-inhibition curve. Low readings indicate inhibition by little substance, high ones a need for much substance.
